Each structure is given as a SMILES string. Converted amounts (≈) assume the structure as drawn. Like-named read-outs stand apart in the source and are kept apart here.

The source of these data is patent US5478864A, “Method for disinfection using a 1,n-bis(N^5 -trifluoromethyl-phenyl-N^1 -biguanido)-alkane” (Mitsubishi Materials Corp., priority 1991, dated 1995).

Assay [1] deals with Achromobacter xylosoxidans RIMD 0101001. The assay is described as follows: minimum growth inhibition concentration, agar dilution. In kind it is cell-based. The conditions noted are these: RIMD0101001, Mueller-Hinton agar, digluconate. The procedure:
(§1) Germicidal activity of the compound prepared in Example 1 (Compound I) was evaluated by the minimum growth inhibition concentration method (based on the standard method stipulated by Japan Society of Chemotherapy) and the phenol coefficient method.
(§2) A portion of the digluconate salt of the compound of Example 1 was dissolved in water and the solution was heated to dryness on a water bath. The dried salt was dissolved in acetic acid (potentiometric titration grade) and the concentration thereof was determined by potentiometric titration using a perchloric acid solution. The gluconate acid salt solution, whose concentration was thus determined, was diluted to predetermined concentrations with sterilized water. Each 1 ml of the solution of each concentration was placed in a Petri dish, 9 ml of Mueller-Hinton agar (supplied by Difco) was added thereto and well mixed. Thus sensitivity test media were prepared. The concentrations of the compound were 200 μg/ml and 2^n times wherein (n=-8 to 2). Separately, microorganism strains indicated in Table 1 were subcultured in propagation media (using Mueller-Hinton broth supplied by Difco) at 37° C. for 24 hours. The microorganism concentration was adjusted to 10^6 /ml. The thus obtained cultures were respectively inoculated on a series of sensitivity measuring culture media using an inoculation rod. […] The results are shown in Table 1 together with the result on chlorhexidine as a control.
(§3) Disinfecting effect of the above-prepared compounds was tested by measurement of minimum growth inhibition concentration and by the test for immediate effect in the same manner as in Example 3.
Background: In agar dilution the substance is mixed into plates at graded concentrations.

The test system of assay [2] is Alcaligenes faecalis IPO 13111. Described as above. As to conditions: IPO13111, Mueller-Hinton agar, digluconate. In kind it is cell-based. As for the experimental part: as §1, §2, §3
The subject of assay [3] is Escherichia coli IID 861. Described as above. In kind it is cell-based. The conditions noted are these: IID861, Mueller-Hinton agar, digluconate, IID 861, read-out: MIC. As for the experimental part: as §1, §2, §3
In assay [4] the test system is Escherichia coli NIHJ JC-2. Described as above. Format: cell-based. The conditions noted are these: NIHJJC2, Mueller-Hinton agar, digluconate, NIHJ JC-2, read-out: MIC. The procedure: as §1, §2, §3
Assay [5] relates to Flavobacterium meningosepticum RIMD 0614002. The description is as above. In kind it is cell-based. The conditions noted are these: Elizabethkingia meningoseptica, RIMD0614002; Mueller-Hinton agar; digluconate. As for the experimental part:
as §1, §2, §3

The subject of assay [6] is Klebsiella pneumoniae IID 865. The assay is described as above. In kind it is cell-based. As to conditions: IID865, Mueller-Hinton agar, digluconate, read-out: MIC. The procedure: as §1, §2, §3
Assay [7] relates to Proteus vulgaris IID 874. The description is as above. Format: cell-based. The conditions noted are these: IID874, Mueller-Hinton agar, digluconate. The procedure: as §1, §2, §3
Assay [8] relates to Pseudomonas aerugimosa (clinically collected). The description is as above. Format: cell-based. The conditions noted are these: Mueller-Hinton agar, digluconate. As for the experimental part: as §1, §2, §3
The test system of assay [9] is Pseudomonas cepacia (collected Chiba Univ.). Described as above. Format: cell-based. The conditions noted are these: Burkholderia cepacia, Mueller-Hinton agar, digluconate. As for the experimental part: as §1, §2, §3
The subject of assay [10] is Staphylococcus epidermis IID 866. Described as above. In kind it is cell-based. The conditions noted are these: IID866, Mueller-Hinton agar, digluconate, IID 866, read-out: MIC. The procedure: as §1, §2, §3
The test system of assay [11] is Escherichia coli IID 951. The assay is described as above. As to conditions: IID951, Mueller-Hinton agar, IID 951, read-out: MIC. Format: cell-based. As for the experimental part:
as §1, §2
(§4) Compounds of formula I, wherein the trifluoromethyl group is located at the p-position and n is 2, 3, 5, 8 and 11, were prepared starting from ethylene diamine dichloride, 1,3-propane diamine dichloride, 1,5-pentane diamine dichloride, 1,8-octane diamine dichloride or 1,11-undecane diamine dichloride, sodium dicyanamide and 4-trifluoromethyl aniline hydrochloride in accordance with the procedures as described above and minimum growth inhibition concentration (MIC) was determined in the same manner as above.
as §3
(§5) Compounds of formula I, wherein the trifluoromethyl group is located at the m-position and n is 2, 3, 5 and 8, 11 were prepared starting from ethylene diamine dihydrochloride, 1,3-propane diamine dihydrochloride, 1,5-pentane diamine dihydrochloride, 1,8-octane diamine dihydrochloride or 1,11-undecane diamine dihydrochloride, sodium dicyanamide and 3-trifluoromethylaniline hydrochloride in accordance with the procedures of Example 4 and germicidal activity thereof were determined in the same manner.

For assay [12], the system named is Pseudomonas aeruginosa IID 1042. Described as above. In kind it is cell-based. The procedure:
as §1, §2, §4, §3, §5

For assay [13], the system named is Serratia marcescens IID 602. Described as above. In kind it is cell-based. As to conditions: IID602, Mueller-Hinton agar, IID 602, read-out: MIC. The procedure:
as §1, §2, §4, §3, §5

In assay [14] the test system is Staphylococcus aureus FDA 209-P. The assay is described as above. In kind it is cell-based. As to conditions: FDA209, Mueller-Hinton agar. The procedure: as §1, §2, §4, §3, §5
For assay [15], the system named is Staphylococcus aureus (clin'ly col'ted MRSA). As to the kind of experiment: minimum growth inhibition concentration, agar dilution (first MRSA line). In kind it is cell-based. The conditions noted are these: Mueller-Hinton agar, digluconate, clinically collected MRSA, first line, read-out: MIC. The procedure:
as §1, §2, §3

The test system is the same in assay [16]. As to the kind of experiment: minimum growth inhibition concentration, agar dilution (second MRSA line). Format: cell-based. The conditions noted are these: Mueller-Hinton agar, digluconate, clinically collected MRSA. As for the experimental part: as §1, §2, §3
The subject of assay [17] is Escherichia coli IID 861. As to the kind of experiment: test for immediate effect (phenol coefficient method). In kind it is cell-based. The conditions noted are these: of three runs, conc. 0.001%, 20° C. As for the experimental part:
Immediate effect of this compound was evaluated in accordance with the phenol coefficient method described in "Directions for Hygienic Tests" compiled by the Ministry of Health and Welfare of Japan. The method is as follows. (1) Culture medium Each 10 ml of the bouillon described below was taken into test tubes and they were sterilized with high pressure steam at 120° C. for 20 minutes. (2) Test method Diluted solutions of a series of concentrations of the sample compound were prepared for each of microorganisms listed in Table 2. Each 10 ml of the solutions was put into an appraisal test tube and the test tubes were placed in a thermostat bath kept at 20° C. Each microorganism was subcultured in the above described bouillon medium for testing disinfectants for three generations (37° C. for 48 hours). Each 1 ml of each culture was placed in each of the above-described series of appraisal test tubes and well mixed. After 2.5, 5, 10 and 15 minutes, 0.1 ml of the content of each appraisal test tube was taken and inoculated onto each portion of the bouillon medium for testing disinfectants. […] Each test was carried out three times. Immediate effect of disinfectants was compared by number of test runs in which microorganism growth was observed. […]

The subject of assay [18] is dental plaque. The conditions noted are these: Warner et al, 1973; cited from earlier work.
Where [19] appears, read: Pseudomonas aeruginosa, IID1042, Mueller-Hinton agar, read-out: MIC.

In general, MIC refers to the lowest concentration that inhibits growth of the organism. In the case of `N=C(NCCCCCCNC(=N)NC(=N)Nc1cccc(C(F)(F)F)c1)NC(=N)Nc1cccc(C(F)(F)F)c1` [Ex. 5, 1,6-bis(N^5-m-trifluoromethylphenyl-N^1-biguanido)-hexane], the minimum inhibitory concentration (MIC) in assay [1] was 25 µg/mL (≈ 43.7 µM); in assay [2], 6.25 µg/mL (≈ 10.9 µM); in assay [3], 1.56 µg/mL (≈ 2.72 µM); in assay [4] it was 1.56 µg/mL (≈ 2.72 µM); in assay [5], 200 µg/mL (≈ 349 µM); in [6], 1.56 µg/mL (≈ 2.72 µM). The MIC in assay [7] turned out to be 12.5 µg/mL (≈ 21.8 µM); in [8], 25 µg/mL (≈ 43.7 µM); in assay [9] it was 50 µg/mL (≈ 87.3 µM); in assay [10], 1.56 µg/mL (≈ 2.72 µM); in [11], 1.56 µg/mL (≈ 2.72 µM); in assay [12] (Mueller-Hinton agar, listed as n = 6 (m-position)), 25.0 µg/mL (≈ 43.7 µM). Further, the MIC in assay [12] (setting [19]) was found to be 25 µg/mL (≈ 43.7 µM); in assay [13], 6.25 µg/mL (≈ 10.9 µM); in [14], 0.78 µg/mL (≈ 1.36 µM); in assay [15] it was 3.13 µg/mL (≈ 5.47 µM); in assay [16], 1.56 µg/mL (≈ 2.72 µM). The “number of test runs in which microorganism growth was observed” value in assay [17] (contact time 2.5 min) came to 2; in [17] (contact time 5.0 min) it was 1; in assay [17] (contact time 10.0 min) it was 0; in assay [17] (contact time 15.0 min) it was 0. Also, in [18], the antiplaque activity entry is “superior antiplaque activity at lower concentrations”.
Consider `N=C(NCCCCCCNC(=N)NC(=N)NC12CC3CC(CC(C3)C1)C2)NC(=N)NC12CC3CC(CC(C3)C1)C2` [bis-1-adamanthyl-substituted derivatives], for which the antiplaque activity result in assay [18] was “at the same level as chlorhexidin or better”.
Turning to `N=C(NCCCCCCNC(=N)NC(=N)NC1CCCCC1)NC(=N)NC1CCCCC1` [bis-cyclohexyl-substituted], in [18], the antiplaque activity result was “at the same level as chlorhexidin or better”.
Take `N=C(NCCCCCCNC(=N)NC(=N)Nc1ccccc1)NC(=N)Nc1ccccc1` [bis-phenyl-substituted derivative]: the antiplaque activity result in assay [18] is “no antiplaque activity”.
Consider `N=C(NCCNC(=N)NC(=N)Nc1cccc(C(F)(F)F)c1)NC(=N)Nc1cccc(C(F)(F)F)c1` [n = 2 (m-position)], for which the minimal inhibitory concentration (MIC) in [11] stood at 12.5 µg/mL (≈ 24.2 µM); in assay [12] (setting [19]), 200 µg/mL (≈ 387 µM); in [13] it was 50 µg/mL (≈ 96.8 µM); in assay [14], 12.5 µg/mL (≈ 24.2 µM).
Consider `N=C(NCCNC(=N)NC(=N)Nc1ccc(C(F)(F)F)cc1)NC(=N)Nc1ccc(C(F)(F)F)cc1` [n = 2 (p-position)], for which the MIC in assay [11] worked out at 12.5 µg/mL (≈ 24.2 µM); in assay [12] (setting [19]), 200 µg/mL (≈ 387 µM); in assay [13] it was 50 µg/mL (≈ 96.8 µM); in assay [14], 25 µg/mL (≈ 48.4 µM).
As to `N=C(NCCCNC(=N)NC(=N)Nc1cccc(C(F)(F)F)c1)NC(=N)Nc1cccc(C(F)(F)F)c1` [n = 3 (m-position)], the MIC in assay [11] turned out to be 3.13 µg/mL (≈ 5.9 µM); in assay [12] (setting [19]) it was 50 µg/mL (≈ 94.3 µM); in [13], 12.5 µg/mL (≈ 23.6 µM); in assay [14], 3.13 µg/mL (≈ 5.9 µM).
Regarding `N=C(NCCCNC(=N)NC(=N)Nc1ccc(C(F)(F)F)cc1)NC(=N)Nc1ccc(C(F)(F)F)cc1` [n = 3 (p-position)], the MIC stood at 1.56 µg/mL (≈ 2.94 µM) in assay [11], 50 µg/mL (≈ 94.3 µM) in assay [12] (setting [19]), 6.25 µg/mL (≈ 11.8 µM) in [13] and 0.78 µg/mL (≈ 1.47 µM) in assay [14].
The matching figures for `N=C(NCCCCCNC(=N)NC(=N)Nc1cccc(C(F)(F)F)c1)NC(=N)Nc1cccc(C(F)(F)F)c1` [n = 5 (m-position)]: 3.13 µg/mL (≈ 5.6 µM), 12.5 µg/mL (≈ 22.4 µM), 6.25 µg/mL (≈ 11.2 µM) and 0.78 µg/mL (≈ 1.4 µM).
The matching figures for `N=C(NCCCCCNC(=N)NC(=N)Nc1ccc(C(F)(F)F)cc1)NC(=N)Nc1ccc(C(F)(F)F)cc1` [n = 5 (p-position)]: 3.13 µg/mL (≈ 5.6 µM), 12.5 µg/mL (≈ 22.4 µM), 6.25 µg/mL (≈ 11.2 µM) and 0.78 µg/mL (≈ 1.4 µM).
The like results for `N=C(NCCCCCCCCNC(=N)NC(=N)Nc1cccc(C(F)(F)F)c1)NC(=N)Nc1cccc(C(F)(F)F)c1` [n = 8 (m-position)] were, in that order, 1.56 µg/mL (≈ 2.6 µM), 25 µg/mL (≈ 41.6 µM), 6.25 µg/mL (≈ 10.4 µM) and 1.56 µg/mL (≈ 2.6 µM).
`N=C(NCCCCCCCCNC(=N)NC(=N)Nc1ccc(C(F)(F)F)cc1)NC(=N)Nc1ccc(C(F)(F)F)cc1` [n = 8 (p-position)]: the MIC came to 1.56 µg/mL (≈ 2.6 µM) in assay [11], 25 µg/mL (≈ 41.6 µM) in assay [12] (setting [19]), 6.25 µg/mL (≈ 10.4 µM) in assay [13] and 1.56 µg/mL (≈ 2.6 µM) in assay [14].
As for `N=C(NCCCCCCCCCCCNC(=N)NC(=N)Nc1cccc(C(F)(F)F)c1)NC(=N)Nc1cccc(C(F)(F)F)c1` [n = 11 (m-position)], the minimum inhibitory concentration (MIC) in [11] came to 25 µg/mL (≈ 38.9 µM); in [12] (setting [19]), 400 µg/mL (≈ 622 µM); in assay [13] it was 100 µg/mL (≈ 156 µM); in assay [14], 12.5 µg/mL (≈ 19.4 µM).
The like results for `N=C(NCCCCCCCCCCCNC(=N)NC(=N)Nc1ccc(C(F)(F)F)cc1)NC(=N)Nc1ccc(C(F)(F)F)cc1` [n = 11 (p-position)] were, in that order, 50 µg/mL (≈ 77.8 µM), 400 µg/mL (≈ 622 µM), 100 µg/mL (≈ 156 µM) and 12.5 µg/mL (≈ 19.4 µM).
